“Also recorded” adds a separate entry of the source. Like-named read-outs stand apart in the source and are kept apart here.
Legend:
[1] = test system: PBMCs from a healthy donor; experiment: Apoptosis assay, FACS with FITC-coupled annexin V; format: cell-based; details: 0.4 µM, 12 days
Method: Analysis of cellular toxicity. (A) Cell viability assay. […] (B) Cell-cycle analysis. […] FACS-analysis was performed by DNA-staining with propidiumiodide. (C) Apoptosis-assay.
Analysis of Cellular Toxicity.

HIV-1 isolate FE9 = experiment: Infection of PM1 cells with multidrug-resistant HIV-1 isolate FE9, p24 antigen in supernatant; format: cell-based
Method: Culture medium was changed every third day and cells were split 1:1. Cell viabilities and p24 antigen levels were determined at the indicated days. The percentage of inhibition of virus replication in the drug-treated culture as compared with replication in the untreated control culture is shown in the upper panel. The respective virus growth curves as measured by p24 antigen levels in the culture supernatants are shown in the lower panel. n/a; not applicable. (B) Cellular toxicities were determined in the same cultures by alamarBlue™ assay (Serotec) for metabolic activity.
HIV-1 Infection Experiments. […]
(§1) PM1 cells were cultured in RPMI 1640 medium containing 10% fetal calf serum (Pansystems GmbH) and antibiotics (penicillin and streptomycin) and infected with the virus strains exactly as described elsewhere (Hauber, I., Bevec, D., Heukeshoven, J., Krätzer, F., Horn, F., Choidas, A., Harrer, T. & Hauber, J. (2005) J. Clin. Invest 115, 76-85). […] At the same time cell viability (measured by alamarBlue™ assay) and p24 antigen levels in the supernatant (Innotest HIV p24 Antigen mAb; Innogenetics N. V.) were determined. […]

HIV-1 BaL = HIV-1 BaL infection of PM1 cells, p24 antigen in supernatant; format: cell-based; details: HIV-1 BaL-infected PM1 cells, p24Gag antigen, day 6 and 9 post-infection; dihydrochloride
Method: The culture medium was changed at day 3 and 6 post-infection and the cells were split 1:1. p24^Gag antigen levels and cell viabilities were determined at day 6 and 9 post-infection. The percentage of inhibition of virus replication in the drug-treated cell culture, as compared to the untreated controls is shown in the upper panel. Cell viabilities from the same cultures were determined by alamarBlue™ assay (Serotec) and is shown in the lower panel. (B) Gag-specific Western-blot analysis. […] (C) Analysis of de novo infection. […]
as §1

eIF-5A = experiment: Hypusine modification of eIF-5A, [14C]putrescine labeling, 2D gel electrophoresis and immunoprecipitation; format: cell-based; details: 0.4 µM, PM1 and HeLaCD4-CAT cells
Method: Protein separation was performed using equal amounts of radiolabeled extracts, by isoelectric focusing in the first dimension on an immobilized linear pH gradient (IPG) from pH 4.0 to 7.0, which was followed by SDS-PAGE separation in the second dimension. Only molecular mass of < 25.0 kDa is shown in the autoradiographies. Molecular mass standards are indicated in kDa on the right. […] Coomassie blue-staining of the gel served as protein loading control (lower panel).
Two-Dimensional Gel Electrophoresis and Immunoprecipitation Analysis. […] Gel analysis was performed by autoradiography as previously described (Hauber, I., Bevec, D., Heukeshoven, J., Krätzer, F., Horn, F., Choidas, A., Harrer, T. & Hauber, J. (2005) J. Clin. Invest 115, 76-85). For immunoprecipitation of eIF-5A, 2 x 10^6 HeLaCD4-CAT cells (obtained through the NIH AIDS Research and Reference Reagent Program from B.K.Felber and G.N.Pavlakis) were metabolically labeled as above. The various cellular extracts were prepared and analyzed using a rabbit polyclonal anti-eIF-5A antibody (Schatz, O., Oft, M., Dascher, C., Schebesta, M., Rosorius, O., Jaksche, H., Dobrovnik, M., Bevec, D. & Hauber, J. (1998) Proc. Natl. Acad. Sci. U. S. A 95, 1607-1612) as previously described in detail (Hauber, I., Bevec, D., Heukeshoven, J., Krätzer, F., Horn, F., Choidas, A., Harrer, T. & Hauber, J. (2005) J. Clin. Invest 115, 76-85).

HIV-1 Rev pathway = experiment: HIV-1 gag-pol mRNA export with GPV-RRE / GPV-4xCTE constructs in transfected HeLaCD4-CAT cells; format: cell-based; details: 0.4 µM, HeLaCD4-CAT cells cultured 5 days, 48 hours post-transfection
From the text: Transcripts expressed from GPV-RRE access the CRM1/exporti nuclear export pathway. Messages expressed from GPV-4xCTE are transported across the nuclear envelope via the NXF1/TAP pathway. CMV-IE, cytomegalovirus immediate early promoter; pA, polyadenylation site; SD, splice donor; SA, splice acceptor; RRE, Rev reponse element; CTE, constitutive transport element. […] Likewise, cultures were transfected with GVP-4xCTE, a negative control plasmid (to maintain input DNA levels) and the constitutive internal control vector pBC12/CMV/SEAP. At 48 hours post-transfection cell supernatants were assayed for secreted alkaline phosphatase (SEAP) and p24 antigen levels. In addition, p55^Gag- and α-tubulin-specific (protein loading control) Western-blot analyses were performed from representative cell cultures at […].
Transfection Experiments and Plasmids. HeLaCD4-CAT cells were transiently transfected using Lipofectamine and Plus reagent according to the manufacturer's protocol (Invitrogen Corp.). […] At 48 hours post-transfection, cellular lysates were prepared and the levels of β-galactosidase (transfection efficiency control) and luciferase were assayed by ELISA (Roche Applied Science) or luminescence (Promega), respectively. […]

[2] = biological target: T1, S-adenosylmethionine decarboxylase (SAMDC) (Homo sapiens, UniProt P17707); details: dihydrochloride, cited from earlier work
T1 sequence (P17707 68-334 limits assumed): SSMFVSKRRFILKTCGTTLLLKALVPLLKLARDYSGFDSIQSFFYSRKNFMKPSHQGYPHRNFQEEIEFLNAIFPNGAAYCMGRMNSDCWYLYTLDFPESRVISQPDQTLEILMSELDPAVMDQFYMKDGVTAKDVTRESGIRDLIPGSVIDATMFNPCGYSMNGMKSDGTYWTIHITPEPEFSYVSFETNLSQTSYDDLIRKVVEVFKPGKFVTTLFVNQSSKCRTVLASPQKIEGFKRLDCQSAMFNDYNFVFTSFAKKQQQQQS
T1 sequence (P17707 1-67 limits assumed): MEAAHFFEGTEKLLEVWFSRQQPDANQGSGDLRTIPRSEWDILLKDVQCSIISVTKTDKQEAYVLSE

eIF-5A, sequence (P63241 whole entry): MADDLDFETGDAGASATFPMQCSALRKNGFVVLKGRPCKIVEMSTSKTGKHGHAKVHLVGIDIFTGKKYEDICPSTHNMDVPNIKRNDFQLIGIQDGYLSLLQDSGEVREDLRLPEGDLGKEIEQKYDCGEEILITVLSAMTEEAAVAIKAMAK

2-[4-(aminoiminomethyl)-2,3-dihydro-1H-inden-1-ylidene]-hydrazinecarboximidamide dihydrochloride
effects on cell death [1]: did not induce deleterious effects | formation of progeny viruses (HIV-1 isolate FE9; PM1 cells infected with multiple HAART-resistant isolate FE9, 0.4 µM, dihydrochloride): Inhibition of a multiple HAART-resistant HIV-1 isolate; also recorded: inhibited | virus replication (HIV-1 isolate FE9; applied concentration 0.4 µM): perfectly blocked virus replication | HIV-1 BaL replication (HIV-1 BaL): Inhibition of HIV-1 BaL replication; also recorded: pronounced antiviral effects | hypusine-formation in eIF-5A (eIF-5A): prevents hypusine-formation | HIV-1 Rev pathway (HIV-1 Rev pathway): Specific inhibition | inhibition of SAMDC [2]: potent inhibitor | inhibition of SAMDC ([2]; listed as 2-[4-(aminoiminomethyl)-2,3-dihydro-1H-inden-1-ylidene]-hydrazinecarboximidamide): efficient inhibitor

Source: patent EP1834669A1, “Use of specific hydrazone compounds for the treatment of viral infections” (Heinrich-Pette-Institut, priority 2006, dated 2007)
